Drawing on PubChem BioAssay (NCI), this text covers TGI for twelve compounds.

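Dose response: 5 concentrations. Exposure: 48 h. Format: 96-well plates. Endpoint: linear interpolation; highest concentration if not reached. TGI: total growth inhibition.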

Test in all cases: inhibition of tumour cell growth, NCI panel, 48 h
Assay [1] relates to HOP-92 NSCLC.
Assay [2] relates to KM12 colon.
The subject of assay [3] is MALME-3M melanoma.
In assay [4] the test system is OVCAR-3 ovarian.
Assay [5] concerns OVCAR-8 ovarian.
Assay [6] has as its system SF-539 CNS.
For assay [7], the system named is SNB-75 CNS.
Assay [8] deals with SR leukemia.
In assay [9] the test system is TK-10 renal.
For assay [10], the system named is A498 renal.
Assay [11] concerns T-47D breast.

In the case of `COc1cccc(-c2nc(-c3cnccn3)n(C/C=C/c3ccccc3)n2)c1`, the TGI in [1], in assay [2], in [3], in assay [4], in assay [5] and in [6] was above 10 µM in each case. Also, the TGI in assay [7], in [8] and in assay [9] was above 10 µM throughout.
As to `COCn1cnc2c(=O)nc(SC)n(-c3ccccc3)c21`, the TGI in assay [10], in [1], in [2], in assay [3], in assay [4] and in assay [5] was above 100 µM each time. For the same compound, the TGI in [6], in assay [7], in assay [11] and in [9] was above 100 µM in each case.
Regarding `CC(=O)Nc1c(C(=N)C#N)ncn1CCO`, the TGI in assay [10], in assay [1], in assay [2], in assay [3], in assay [4] and in assay [5] was above 100 µM each time. Further, the TGI in assay [6], in [7], in assay [11] and in assay [9] was above 100 µM in each case.
`O=C(Cn1c2ccc(Br)cc2c2nc3ccccc3nc21)NNC(=S)NC1CCCCC1`: the TGI in assay [10] worked out at 35.1 µM; in assay [1] it was 27.1 µM; in [2] it was 48.2 µM; in assay [3], 39.5 µM; in [4], 22.8 µM; in [5], 27.8 µM. Moreover, the TGI came out at 47.5 µM in [7], 45.8 µM in assay [11] and 28.7 µM in [9].
With `CC(NC(=O)c1c(O)[nH]c(=S)[nH]c1=O)c1ccc([N+](=O)[O-])cc1` (stereo not drawn), the TGI in assay [1] was above 100 µM; in [2], above 100 µM; in assay [4], above 100 µM; in assay [6], above 100 µM; in assay [7], 73.3 µM; in assay [11], above 100 µM. In addition, the TGI in assay [9] was above 100 µM.
Regarding `COc1ccc(CNc2nc(NC3CCCCC3)nc(NC3CCCCC3)n2)cc1`, the TGI in assay [1] was above 100 µM; in [2], 3.84 µM; in [3] it was 64.2 µM; in assay [4] it was above 100 µM; in assay [5] it was above 100 µM; in assay [6] it was above 100 µM. Also, the values for the TGI in assay [7], in assay [11] and in assay [9] were above 100 µM, 44 µM and above 100 µM, respectively.
`CCOC(=O)c1c(OCC)[nH]c(=O)c(C(c2cccs2)c2c(O)c(C(=O)OCC)c(OCC)[nH]c2=O)c1O`: the TGI in assay [10] stood at 23.5 µM; in [1], 48.2 µM; in assay [2], 42.9 µM; in [3], 25.6 µM; in assay [4], 30.4 µM; in assay [5] it was 41.6 µM. Further, the TGI in [6] was 28.5 µM; in [7], 9.72 µM; in [11], 17 µM; in [9] it was 63.7 µM.
`Cc1n[n+](Cc2ccccc2)c2sc(N)nn12`: the TGI in [10], in [2], in [3], in [4], in [5] and in assay [6] was above 100 µM throughout. The TGI in [7], in assay [11] and in assay [9] was above 100 µM each time.
Regarding `CCOC(=O)c1ccc(-c2ccc(Cl)cc2)[nH]1`, the TGI in [1], in assay [2], in assay [3], in assay [4], in assay [5] and in [6] was above 10 µM throughout. Moreover, the TGI in assay [7], in [8] and in assay [9] was above 10 µM each time.
With `CC(=O)NC1C(Sc2ncn(C3OC(CO)C(O)C(O)C3NC(C)=O)n2)OC(CO)C(O)C1O` (stereo not drawn), the TGI in assay [10], in assay [1], in [2], in assay [3], in assay [4] and in assay [5] was above 100 µM in each case. Besides, the TGI in [6], in assay [11] and in [9] was above 100 µM each time.
As to `C=C1CC[C@H]2C(=O)OC(c3ccoc3)C[C@]2(C)C/C=C\C=C/1C(=O)OC` (stereo partly drawn), the TGI in assay [10], in assay [1], in assay [2], in assay [3], in [4] and in assay [5] was above 25 µM throughout. Also, the TGI in assay [6], in assay [7] and in assay [9] was above 25 µM each time.
`CC1CC(Nc2ccc(Br)cc2)N(C(=O)c2ccc(Br)cc2)O1` (stereo not drawn): the TGI in assay [3], in [4], in assay [5], in [6], in [7] and in assay [8] was above 10 µM throughout. Besides, the TGI in [11] and in assay [9] was above 10 µM each time.
